What was measured:
Cucumbers [1] = assay: Aesthetics (yellowing, shrivel) of cucumbers; format: in vivo, cucumber; settings: 5 days exposure to exogenous ethylene (2 ppm)
Description: (§1) Cucumbers were analyzed in the presence (2 ppm) and absence (0 ppm) of exogenous ethylene at 20° C. for 5 days. Four groups of cucumbers were analyzed. One group received no treatment. One group was treated with a chemical treatment (i.e., 1-MCP). One group was treated with a physical treatment A (40 g/L). One group was treated with both a chemical treatment (i.e., 1-MCP) and physical treatment A (40 g/L). The respiration rate and the mass loss rate of the cucumbers was measured

Mexican avocados [2] = assay: Quality defects of ripened Mexican avocados; format: in vivo, avocado
Description: (§2) Four groups of 180 (i.e., 3 sets of 60) Mexican avocados were analyzed over four days. One group received no 1-MCP, and the other group was exposed for eight hours to 1-MCP using 2, 4, or 6 packets of 1-MCP (immobilized in cyclodextrin at 0.014%) per set. Each packet was wetted with water, and then placed in a sealed 30 L container along with 1 set of 60 avocados. The avocados were left in the sealed container for 8 hr. After 8 hours, the avocados were removed and the respiration rate was measured over the course of 4 days. Additionally, the firmness of the avocados (represented as durometer stage) was measured using a durometer.
(§3) Three groups of 60 Mexican avocados were analyzed over three days at ambient temperature. One group received no treatment. One group of avocados at stage 1 (i.e., after day 0) was exposed to 1-MCP for approximately 8 hours. One group of avocados at stage 3 (i.e., after day 2) was exposed to 1-MCP for approximately 8 hours. The respiration rate of the avocados was measured over the course of 3 days.
(§4) To determine the difference in performance for treating avocados on a brush bed at varying concentrations before or after they have been put in ripening rooms, four flats of Mexican avocados were analyzed. One flat received no treatment. The other three flats were treated with physical treatment A at 12, 22, and 32 g/L, respectively, applied using brush bed system and subsequently dried at 50° C. Avocados treated with physical treatment A were also triggered with ethylene, either before or after treatment with physical treatment A. The respiration rate of the avocados was measured. The firmness of the avocados was measured using a durometer.

Cucumbers [3] = assay: Respiration rate of cucumbers; format: in vivo, cucumber; settings: 20° C., 5 days
Text: (§5) As used herein, the “respiration rate” of a product such as produce (e.g., a produce unit) refers to the rate at which the product releases CO2, and more specifically is the volume of CO2 (at standard temperature and pressure) released per unit time per unit mass of the product. In some embodiments, the respiration rate of a product can be measured by placing the product in a closed container of known volume that is equipped with a CO2 sensor, recording the CO2 concentration within the container as a function of time, and then calculating the rate of CO2 release required to obtain the measured concentration values. In some cases, the respiration rate of multiple produce units in a volume (e.g., a sealed or semi-sealed volume) is measured in a single measurement (e.g., as an average). It is understood that respiration rate may be determined by indirect methods, including, but not limited to, hyperspectral imaging, NIR, and other imaging or characterization processes.
as §1, with “One group was treated with both a chemical treatment (i.e., 1-MCP) and physical treatment A (40 g/L).” left out

Mexican avocados [4] = assay: Respiration rate (CO2 release) of Mexican avocados; format: in vivo, avocado; settings: for cumulative respiration factor (RF): Example 3
Text: as §5
As used herein, the term “respiration factor” is defined as the ratio of the cumulative respiration of uncoated produce (measured for a control group) to the cumulative respiration of the corresponding coated produce.
as §2, §3
(§6) Three groups of 120 Mexican avocados were analyzed over about 5 days. One group received no treatment. One group was exposed to 1-MCP for 8 hours immediately after removal from cold storage at 4.5° C. (“cold 1-MCP”). One group was exposed to 1-MCP for 8 hours after the avocados spent 2 hours at ambient temperature (“semi-cold 1-MCP”). One group was exposed to 1-MCP for 8 hours after the avocados spent 6 hours at ambient temperature (“ambient 1-MCP”). The respiration rate of the avocados was measured over the course of 5 days. The firmness of the avocados was measured using a durometer.
Four groups of Mexican avocados were analyzed in order to investigate the minimum respiration peak that Mexican avocadoes should reach in order to ripen without quality issues. One group received no treatment. One group was treated with 1 layer of physical treatment (by bowl dipping and ambient drying; physical treatment A at 30 g/L with 3 g/L glycerol monocaprate). […] The respiration rate of the avocados was measured daily for three weeks. […]
To determine the difference in performance for treating avocados on a brush bed at varying concentrations before or after they have been put in ripening rooms, four flats of Mexican avocados were analyzed. […]

Persian limes [5] = assay: Mass loss rate of Persian limes; format: in vivo, Persian lime; settings: not exposed to ethylene and in the presence of 2 ppm ethylene, 20° C., 5 days
Description: (§7) As used herein, the “mass loss rate” refers to the rate at which the product loses mass (e.g. by releasing water and other volatile compounds). The mass loss rate is typically expressed as a percentage of the original mass per unit time (e.g., percent per day).
(§8) Persian limes were analyzed in the presence (2 ppm) and absence (0 ppm) of exogenous ethylene at 20° C. for 5 days. Four groups of limes were analyzed. One group received no treatment. One group was treated with 1-MCP. One group was treated with physical treatment A (40 g/L). One group was treated with both 1-MCP and physical treatment A (40 g/L). The respiration rate of the limes was measured. The mass loss rate of the limes was measured.

Mexican avocados [6] = assay: Firmness / durometer stage of Mexican avocados; format: in vivo, avocado
Description: In some embodiments, a stage of a produce unit (e.g., an avocado) is based on firmness, and can be measured in shores (e.g., using a durometer) and/or pounds of pressure (e.g., using a penetrometer), then correlated to a stage. In some embodiments, a stage of a produce unit can be based on other parameters, such as respiration rate and/or color).
as §2, §3, §6, §4

Cucumbers [7] = assay: Mass loss rate of cucumbers; format: in vivo, cucumber; settings: 20° C., 5 days
Description: as §7, §1

Persian limes [8] = assay: Aesthetics (yellowing) of Persian limes; format: in vivo, Persian lime; settings: over a 5 day period; same trends with 2 ppm ethylene
Description: as §8

[9] = Example 1, once allowed to ripen (about two weeks), 6 packets 1-MCP
[10] = Example 3, semi-cold and ambient 1-MCP

Q: Which results are given for CC1=CC1 [1-MCP, 1-methylcyclopropene]?
A: yellowing (Cucumbers [1]): greater positive impact on the rate of yellowing; checkerboarding (high variability of stage of ripeness) (Mexican avocados [2]; Example 1): observed; feel of the avocados (Mexican avocados [2]; Example 1): spongy; incidence of flesh adhesion (Mexican avocados [2]; [9]): > 30%; incidence of mold (Mexican avocados [2]; [9]): > 25%; internal quality (Mexican avocados [2]; Example 2): did not improve internal quality; incidence of mold and vascular browning (Mexican avocados [2]; Example 2, 1-MCP at stage 1 or stage 3, approximately 40 shore): 15-25%; respiration rate (Cucumbers [3]; absence of ethylene): did not lower the overall respiration rate; respiration rate (Cucumbers [3]; exposed to ethylene (2 ppm)): mitigated the corresponding increase in respiration rate; respiration rate (Mexican avocados [4]; Example 1, exposed 8 hr to 2, 4 or 6 packets 1-MCP (in cyclodextrin at 0.014%) in sealed 30 L container, measured over 4 days): high upon removal but quickly decreased and continued to decrease through 4 days post-exposure; CO2 production (Mexican avocados [4]; Example 2, 1-MCP exposure at stage 1): continuous decrease in CO2 production, back to day 0 levels; cumulative respiration factor (RF) (Mexican avocados [4]; cold 1-MCP: exposed 8 hours immediately after removal from 4.5° C. storage): 1.8 ×; cumulative respiration factor (RF) (Mexican avocados [4]; semi-cold (2 hours at ambient) and ambient (6 hours at ambient) 1-MCP exposure, 8 hours): 2.5 ×; RF (respiration factor) (Mexican avocados [4]; Example 7, 1-MCP 8 hours, regardless of subsequent ethylene exposure (24 hours at 200 ppm)): 1.62 ×; mass loss rate (Persian limes [5]): no significant impact; durometer stage (Mexican avocados [6]; Example 1, 6 packets of 1-MCP, day 4 (untreated stage 5)): 1.5; softening rate (Mexican avocados [6]; Example 2, 1-MCP applied at stage 3): slight effect; ripening (Mexican avocados [6]; Example 3, cold 1-MCP): ripening behavior was still observed; ripening stage relative to control group (Mexican avocados [6]; Example 3, cold 1-MCP, by the time the control group reached stage 5): over two stages behind the control group; ripening (Mexican avocados [6]; [10]): did not ripen effectively; softening rate reduction (Mexican avocados [6]; [10]): greater softening rate reduction than cold 1-MCP; mass loss rate (Cucumbers [7]; absence of ethylene): no impact; mass loss rate (Cucumbers [7]; presence of ethylene (2 ppm)): lowered the mass loss rate; yellowing / aesthetics (Persian limes [8]): reduced the yellowing

— patent US20220039416A1, “METHODS OF CONTROLLING THE RIPENING OF AGRICULTURAL PRODUCTS” (Apeel Technology, Inc., priority 2020, published 2022)
